Here are results for three compounds from US20100204142A1, “USE OF THE PEPTIDE PHPFHLFVY (RENIN INHIBITOR) AS A THERAPEUTIC AGENT” (priority 2007, published 2010).

The test system of one series is CEM-SS cells. Briefly: Cytotoxicity in CEM-SS cells (MTS). To be noted: CEM-SS cells plus peptide only, peptide 10 micrograms per ml.
Series [1] concerns HIV-1 infected CEM-SS cells (strain HIV-1IIIB). Briefly: HIV-1 antiviral assay (CPE reduction, MTS). The format is cell-based. The following applies: peptide 10 micrograms per ml, 6 days post-infection.
The next series concerns MRSA. The following applies: 5 micrograms per ml.
In another series the test system is Streptococcus pneumoniae. The format is cell-based. The following applies: 5 micrograms per ml.
For a further series, the system named is Pseudomonas aeruginosa. The format is cell-based. The following applies: 5 micrograms per ml.
The nature of the next series: in vitro. It counts as cell-based. The following applies: human, MRC-5 cells. On the procedure: The following day, peptide was added and tested in duplicates.
The next series concerns HepG2-2.2.15 cells. Briefly: Cytotoxicity in HepG2-2.2.15 cells (dye uptake). It counts as cell-based. To be noted: dye uptake assay, % cell control. Here is the method: HepG2-2.2.15 cells were plated in 96-well microtiter plates. After 16-24 hours the confluent monolayer of HepG2-2.2.15 cells was washed and the medium was replaced with complete medium containing test peptide—10 micrograms per ml—in duplicate. Lamivudine (3TC) was used as the positive control, while media alone was added to the cells as a negative control (virus control). Three days later the culture medium was replaced with fresh medium containing the peptide. Six days following the initial administration of the peptide, the cell culture supernatants was collected, treated with pronase and DNAse and then used in a real-time quantitative TaqMan PCR assay. The PCR-amplified HBV DNA was detected in real-time by monitoring increases in fluorescence signals that result from the exonucleolytic degradation of a quenched fluorescence probe molecule that hybridizes to the amplified HBV DNA. For each PCR amplification, a standard curve was simultaneously generated using dilutions of purified HBV DNA. Antiviral activity was calculated from the reduction in HBV DNA levels (% virus control). A novel dye uptake assay was then employed to measure cell viability, which is used to calculate toxicity (% cell control).

Where no end group is shown, it is not given here.

Turning to `Cc1cn([C@H]2C[C@H](N=[N+]=[N-])[C@@H](CO)O2)c(=O)[nH]c1=O` [AZT], the “% Cell viability” value in the series on CEM-SS cells was 97%. The “% CPE reduction in HIV-1 infected CEM-SS cells” value in series [1] was determined as 99%.

The term % inhibition denotes the drop in the measured response relative to a control, in per cent. In general, viability refers to a per cent measure of how many cells are alive, often set against a control. PHPFHLFVY-OH [Renin inhibitor]: the “% inhibition” value in the series with MRSA, in the series with Streptococcus pneumoniae and in the series with Pseudomonas aeruginosa was 0.0% each time. For the same compound, the viability at 144 h in “in vitro” amounted to 100%.

For the compound `Nc1ccn([C@@H]2CS[C@H](CO)O2)c(=O)n1` [3TC, Lamivudine, reference compound], the “% Cell viability” value with HepG2-2.2.15 cells was determined as 95.8%.
